Assay results published in patent US20100234364A1, “CCR2 INHIBITORS AND METHODS OF USE THEREOF” (priority 2007, published 2010).

target: T1, CCR2 (Homo sapiens, UniProt P41597); assay: chemotaxis (conventional migration), ligand binding or calcium mobilization (calcium flux) assays; format: cell-based; conditions: Table 2: activity in one of the chemotaxis
T1 construct: chemokine expressing cells (such as THP-1 cells for CCR2 assay or MOLT-4 cells for CCR9 assay); host or cells: THP-1 cells
Description: THP-1 cells and MOLT-4 cells were obtained from the American Type Culture Collection (Manassas, Va.) and cultured in RPMI tissue culture medium supplemented with 10% fetal calf serum (FCS) in a humidified 5% CO2 incubator at 37° C. Recombinant human chemokine proteins MCP-1 and TECK were obtained from R&D Systems (Minneapolis, Minn.). ^125I-labeled MCP-1 protein was obtained from Amersham (Piscataway, N.J.). ChemoTX® chemotaxis microchambers were purchased from Neuro Probe (Gaithersburg, Md.). CyQUANT® cell proliferation kits were purchased from Molecular Probes (Eugene, Oreg.). Calcium indicator dye Fluo-4 AM was purchased from Molecular Devices (Mountain View, Calif.).
Conventional-migration assay was used to determine the efficacy of potential receptor antagonists in blocking migration mediated through chemokines (such as CCR2 or CCR9). This assay was routinely performed using the ChemoTX® microchamber system with a 5-μm pore-sized polycarbonate membrane. To begin such an assay, chemokine expressing cells (such as THP-1 cells for CCR2 assay or MOLT-4 cells for CCR9 assay) were harvested by centrifugation of cell suspension at 1000 RPM on a GS-6R Beckman centrifuge. The cell pellet was resuspended in chemotaxis buffer (HBSS with 0.1% BSA) at 10×10^6cells/mL for CCR2 assay (5 ×10^6cells/mL for CCR9 assay). Test compounds at desired concentrations were prepared from 10 mM stock solutions by serial dilutions in chemotaxis buffer. An equal volume of cells and compounds were mixed and incubated at room temperature for 15 minutes. Afterwards, 20 μL of the mixture was transferred onto the porous membrane of a migration microchamber, with 29 μL of chemokine ligand (0.1 nM chemokine MCP-1 protein for CCR2 assay or 50 nm chemokine TECK protein for CCR9 assay) placed at the lower chamber. Following an incubation at 37° C. (90-minute for CCR2; 150-minute for CCR9), during which cells migrated […] the chemokine gradient, the assay was terminated by removing the cell drops from atop the filter. To quantify cells migrated across the membrane, 5 μL of 7X CyQUANT® solution was added to each well in the lower chamber, and the fluorescence signal measured on a Spectrafluor Plus fluorescence plate reader (TECAN, Durham, N.C.). The degree of inhibition was determined by comparing migration signals between compound-treated and untreated cells. IC50 calculation was further performed by non-linear squares regression analysis using Graphpad Prism (Graphpad Software, San Diego, Calif.).
Calcium flux assay measures an increase in intracellular calcium following ligand-induced receptor activation. In the screen of chemokine antagonists, it was used as a secondary assay carried out on a FLIPR® machine (Molecular Devices, Mountain View, Calif.). To begin an assay, chemokine expressing cells (such as THP-1 cells for CCR2 assay or MOLT-4 cells for CCR9 assay) were harvested by centrifugation of cell suspension, and resuspended to 1.5×10^6 cells/mL in HBSS (with 1% fetal calf serum). Cells were then labeled with a calcium indicator dye Fluo-4 AM for 45 minutes at 37° C. with gentle shaking. Following incubation, cells were pelletted, washed once with HBSS and resuspended in the same buffer at a density of 1.6×10^6 cells/mL. One hundred microliters of labeled cells were mixed with 10 μL of test compound at the appropriate concentrations on an assay plate. Chemokine protein (MCP-1 at a final concentration of 0.1 nM for CCR2 assay or TECK at a final concentration of 25 nM for CCR9 assay) to activate the receptor. The degree of inhibition was determined by comparing calcium signals between compound-treated and untreated cells. IC50 calculations were further performed by non-linear squares regression analysis using Graphpad Prism (Graphpad Software, San Diego, Calif.).
Ligand binding assay was used to determine the ability of potential CCR2 antagonists to block the interaction between CCR2 and its ligand MCP-1. […]

T1 sequence (P41597 whole entry): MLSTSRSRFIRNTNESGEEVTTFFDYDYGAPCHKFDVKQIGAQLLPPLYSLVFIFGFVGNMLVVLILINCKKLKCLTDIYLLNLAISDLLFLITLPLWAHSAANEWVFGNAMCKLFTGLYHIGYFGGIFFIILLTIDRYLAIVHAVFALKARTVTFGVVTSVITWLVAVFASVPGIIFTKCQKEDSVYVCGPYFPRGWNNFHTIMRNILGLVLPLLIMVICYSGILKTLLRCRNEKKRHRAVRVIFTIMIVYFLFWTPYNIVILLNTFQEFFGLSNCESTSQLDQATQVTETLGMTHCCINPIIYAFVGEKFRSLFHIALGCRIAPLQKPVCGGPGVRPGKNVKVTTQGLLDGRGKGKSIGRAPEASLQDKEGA

IC50 [nM]	Compound
< 500	O=S(=O)(Nc1cc(Cl)ccc1C(O)c1ccccc1)c1ccc(Cl)c(C(F)(F)F)c1 (stereo not drawn)
< 500	O=C(c1ccncc1)c1ccc(Cl)cc1NS(=O)(=O)c1ccc(Cl)c(C(F)(F)F)c1
< 500	COC(=O)C1CCCN1C(=O)c1ccc(Cl)cc1NS(=O)(=O)c1ccc(Cl)c(C(F)(F)F)c1 (stereo not drawn)
< 500	O=S(=O)(Nc1cc(Cl)ccc1Oc1ccccc1)c1ccc(Cl)c(C(F)(F)F)c1
< 500	O=C(c1ccc(Cl)cc1NS(=O)(=O)c1ccc(Cl)c(C(F)(F)F)c1)N1CCOCC1
< 500	Cn1cncc1C(=O)c1ccc(Cl)cc1NS(=O)(=O)c1ccc(Cl)c(C(F)(F)F)c1
< 500	O=C(c1ccc(Cl)cc1NS(=O)(=O)c1ccc(Cl)c(C(F)(F)F)c1)N1CCS(=O)(=O)CC1
< 500	CN(C)C(=O)C1CCCN1C(=O)c1ccc(Cl)cc1NS(=O)(=O)c1ccc(Cl)c(C(F)(F)F)c1 (stereo not drawn)
< 500	O=C(c1ccccc1)c1ccc(Cl)cc1NS(=O)(=O)c1ccc(F)c(F)c1
< 500	O=C(c1ccccc1)c1ccc(Cl)cc1NS(=O)(=O)c1cccc(C(F)(F)F)c1
< 500	O=C(c1ccccc1)c1ccc(Cl)cc1NS(=O)(=O)c1ccc(Cl)cc1
< 500	O=C(c1ccc(Cl)cc1NS(=O)(=O)c1ccc(Cl)c(C(F)(F)F)c1)N1CCCC1
< 500	O=C(c1cocn1)c1cc(Cl)ccc1NS(=O)(=O)c1ccc(Cl)c(C(F)(F)F)c1
< 500	O=C(c1cccnc1)c1cc(F)c(F)cc1NS(=O)(=O)c1ccc(Cl)c(C(F)(F)F)c1
< 500	O=C(c1ccc(Cl)cc1NS(=O)(=O)c1ccc(Cl)c(Cl)c1)N1CCOCC1
< 500	O=C(c1ccccc1)c1ccc(Br)cc1NS(=O)(=O)c1ccc(Cl)c(C(F)(F)F)c1
< 500	O=C(c1cccnc1)c1cc(Cl)ccc1NS(=O)(=O)c1ccc(Cl)c(Cl)c1

IC50 [nM]	Compound
< 500	Cc1ccc(C(=O)c2cc(Cl)ccc2NS(=O)(=O)c2ccc(Cl)c(Cl)c2)cn1
< 500	O=C(O)c1cc(S(=O)(=O)Nc2ccc(Cl)cc2C(=O)c2ccccc2)c(F)cc1Cl
< 500	Cn1nc(-c2cc(Cl)ccc2NS(=O)(=O)c2ccc(Cl)c(C(F)(F)F)c2)c2ccccc21
< 500	O=C(c1ccc(Cl)cc1NS(=O)(=O)c1ccc(Cl)c([N+](=O)[O-])c1)N1CCOCC1
< 500	Cn1nnnc1-c1ccc(Cl)cc1NS(=O)(=O)c1ccc(Cl)c(C(F)(F)F)c1
< 500	O=C(c1ccccc1)c1ccc(F)cc1NS(=O)(=O)c1ccc(Cl)c(C(F)(F)F)c1
< 500	Cc1cc(S(=O)(=O)Nc2cc(Cl)ccc2C(=O)N(C)c2ccccn2)ccc1Cl
< 500	CN(C(=O)c1ccc(Cl)cc1NS(=O)(=O)c1cccc(C(F)(F)F)c1)c1ccccn1
< 500	O=C(c1ccc(Cl)cc1NS(=O)(=O)c1ccc(Cl)c(C(F)(F)F)c1)c1ccnc2[nH]ccc12
< 500	CO/N=C(/c1ccc(Cl)cc1NS(=O)(=O)c1ccc(Cl)c(C(F)(F)F)c1)c1ccnc2[nH]ccc12
< 500	Cc1nnc(-c2cc(Cl)ccc2NS(=O)(=O)c2ccc(C(C)(C)C)cc2)c2ccccc12
< 500	CC(C)(C)c1ccc(S(=O)(=O)Nc2ccc(Cl)cc2-c2nncc3ccccc23)cc1
< 500	O=C(c1ccccc1)c1ccc(Cl)cc1NS(=O)(=O)c1ccc(Cl)c(C(F)(F)F)c1 [drawing 278]
< 500	O=C(c1ccc(Cl)cc1NS(=O)(=O)c1ccc(Cl)c(C(F)(F)F)c1)N1CCCCC1 [drawing 291]
< 500	O=C(c1ccccc1)c1cc(Cl)ccc1NS(=O)(=O)c1ccc(Cl)c(Cl)c1 [drawing 296]
< 500	O=C(c1ccccc1)c1cc(Cl)ccc1NS(=O)(=O)c1ccc(Cl)cc1 [drawing 298]
< 500	O=C(c1ccccc1)c1cc(F)ccc1NS(=O)(=O)c1ccc(Cl)c(Cl)c1 [drawing 300]

same assay, conditions: Table 3: activity in one of the chemotaxis

IC50 [nM]	Compound
500 to 5000	N#Cc1cc(S(=O)(=O)Nc2cc(Cl)ccc2C(=O)c2ccccc2)ccc1F
500 to 5000	Cc1ccc(C(=O)c2ccccc2)c(NS(=O)(=O)c2ccc(Cl)c(C(F)(F)F)c2)c1
500 to 5000	COc1ccc(NS(=O)(=O)c2ccc(Cl)c(Cl)c2)c(C(=O)N2CCOCC2)c1
500 to 5000	O=C(c1ccccn1)c1cc(Cl)ccc1NS(=O)(=O)c1ccc(Cl)c(C(F)(F)F)c1
500 to 5000	Cn1ccnc1C(=O)c1cc(Cl)ccc1NS(=O)(=O)c1ccc(Cl)c([N+](=O)[O-])c1
500 to 5000	O=S(=O)(Nc1ccccc1Oc1ccccc1)c1ccc(Cl)c(Cl)c1
500 to 5000	CNC(=O)C1CCCN1C(=O)c1ccc(Cl)cc1NS(=O)(=O)c1ccc(Cl)c(C(F)(F)F)c1 (stereo not drawn)
500 to 5000	O=C(c1ccccn1)c1cc(Cl)ccc1NS(=O)(=O)c1ccc(Cl)c(Cl)c1
500 to 5000	O=C(c1ccc(Cl)cc1NS(=O)(=O)c1ccc(Cl)cc1)N1CCOCC1
500 to 5000	O=C(c1cc(Br)ccc1NS(=O)(=O)c1ccc(Cl)cc1)N1CCOCC1
500 to 5000	O=C(c1ccccc1)c1cc(Cl)ccc1NS(=O)(=O)c1cccc(C(F)(F)F)c1
500 to 5000	O=C(c1cc(Cl)ccc1NS(=O)(=O)c1ccc(Cl)cc1)N1CCOCC1
500 to 5000	O=C(c1ccccc1)c1cc(Cl)ccc1NS(=O)(=O)c1ccc(F)c(Cl)c1
500 to 5000	O=C(c1ccncc1)c1cc(Cl)ccc1NS(=O)(=O)c1ccc(Cl)cc1
500 to 5000	Cc1cccc(S(=O)(=O)Nc2ccc(Cl)cc2C(=O)N2CCOCC2)c1
500 to 5000	O=C(c1cc(Cl)ccc1NS(=O)(=O)c1cccc(Cl)c1)N1CCOCC1
500 to 5000	O=C(c1cc(Cl)ccc1NS(=O)(=O)c1ccc(Cl)c(Cl)c1)N1CCOCC1
500 to 5000	O=C(c1cc(Cl)ccc1NS(=O)(=O)c1ccc(Cl)cc1Cl)N1CCOCC1

IC50 [nM]	Compound
500 to 5000	Cc1cc(S(=O)(=O)Nc2cc(Cl)ccc2C(=O)N2CCOc3cccnc32)ccc1Cl
500 to 5000	O=C(c1cc(Cl)ccc1NS(=O)(=O)c1ccc(Br)cc1)N1CCOCC1
500 to 5000	O=C(c1cc(Cl)ccc1NS(=O)(=O)c1ccc(Cl)cc1)N1CCCCC1
500 to 5000	O=C(c1ccc(Cl)cc1NS(=O)(=O)c1ccc(C(F)(F)F)cc1Cl)N1CCOCC1
500 to 5000	CON=C(c1ccccc1)c1cc(Cl)ccc1NS(=O)(=O)c1ccc(Cl)c(Cl)c1
500 to 5000	O=S(=O)(Nc1ccc(Cl)cc1Oc1ccccc1)c1ccc(Cl)c(Cl)c1
500 to 5000	Cn1ccnc1C(=O)c1cc(Cl)ccc1NS(=O)(=O)c1ccc(Cl)c(Cl)c1
500 to 5000	COC(=O)c1cc(NS(=O)(=O)c2ccc(Cl)c(Cl)c2)c(C(=O)c2ccccc2)cc1Cl
500 to 5000	O=C(c1ccccc1)c1cc(Cl)ccc1NS(=O)(=O)c1ccc(Cl)c([N+](=O)[O-])c1
500 to 5000	Cc1ccc(S(=O)(=O)Nc2ccc(Cl)cc2C(=O)c2ccccc2)cc1Cl
500 to 5000	O=C(c1ccccc1)c1cc(Cl)ccc1NS(=O)(=O)c1ccc(C(F)(F)F)cc1[N+](=O)[O-]
500 to 5000	O=S(=O)(Nc1ccc(Cl)cc1-c1ccccc1)c1ccc(Cl)c(Cl)c1
500 to 5000	O=S(=O)(Nc1cc(Cl)ccc1-c1nnn[nH]1)c1ccc(Cl)c(C(F)(F)F)c1
500 to 5000	O=S(=O)(Nc1cc(Cl)ccc1-c1ncco1)c1ccc(Cl)c(Cl)c1
500 to 5000	O=S(=O)(Nc1ccc(Cl)cc1-c1ccccn1)c1ccc(Cl)c(C(F)(F)F)c1
500 to 5000	O=C(O)C1CCCN1C(=O)c1ccc(Cl)cc1NS(=O)(=O)c1ccc(Cl)c(C(F)(F)F)c1 (stereo not drawn)
500 to 5000	O=C(c1ccc(Cl)cc1NS(=O)(=O)c1ccc(Br)c(F)c1)N1CCOCC1
